# Laboratory results published in patent US12084523B2, “Ubiquitin high affinity cyclic peptides and methods of use thereof” (TECHNION RESEARCH & DEVELOPMENT FOUNDATION LIMITED, priority 2018, dated 2024).
# Tests used:
# [1] = system: p53 and p27 in HeLa cells; assay: Western blot of proteasomal substrates p53 and p27; type: cell-based, human
# Experimental: (§1) FIGS. 5A-5F are images and graphs showing the uptake of Ub4ix by living cells and its cellular effect. (5A) is an image of the structure of fluorescein-5-maleimide-Ub4ix. (5B) is micrographs of HeLa cells incubated in the presence of DMSO (Negative control) or fluorescein-5-maleimide-Ub4ix cyclic peptide (20 μM). Internalization of the peptide into the cells was monitored at the indicated time points. Ub4ix induced the accumulation of Ub-conjugates, as a result of proteolysis inhibition. (5C) is an image of a western blot analysis of ubiquitinated proteins from HeLa cells which were incubated in the presence of Ub4ix, fluorescein-5-maleimide-Ub4ix, or MG132 for the indicated time-periods. Cells were lysed, resolved using SDS-PAGE, proteins were transferred to a nitrocellulose membrane, and the membrane was blotted using an antibody against Ub-conjugates (Ub conj), and Actin. (5D) is a graph of radio-labeled proteins from HeLa cells which were labeled with radioactive S-Met and S-Cys and were then chased for 4 hours in “cold” media. Cells were either non-treated (Control), or incubated in the presence of DMSO, Ub4ix, or MG132, at the indicated concentrations. Radioactivity levels, resulting from protein breakdown during the chase phase, were measured using a scintillation counter. […]
# [2] = system: USP2; assay: In vitro deubiquitination assay, USP2 with K48-linked di-Ub; type: biochemical; details: di-Ub as the substrate
# Experimental: (§2) In Vitro Deubiquitination Assay
# (§3) In vitro deubiquitination reactions were performed in a Tris buffer (50 mM TRIS, 1 mM TCEP, pH 7.7), containing 2 μM ^K48Ub2/4, then the specific DUB (50 mM Tris, 0.5 mM EDTA, 1 mM TCEP and 0.5 mg/ml ovalbumin, pH 7.5) was added. The reaction mixtures were incubated at 37° C. and at the indicated time points the reactions were stopped by taking aliquots and mixed them with 3× sample buffer and boiling. The same amounts were loaded on 14% SDS-PAGE, electro-blotted to nitrocellulose membrane and probed with an anti-Ub antibody. Bands were quantified with Image Quant LAS 4000 (GE Healthcare).
# (§4) The inventors further chose to examine the effect of these cyclic peptides on two DUBs: OTUB1, a K48-linkage chain specific DUB, and USP2, which cleaves most Ub chains without specificity, using K48-linked di- and tetra-Ub chains as substrates.
# [3] = system: USP2; assay: In vitro deubiquitination assay, USP2 with K48-linked tetra-Ub; type: biochemical; details: tetra-Ub chain, after removal of the distal Ub (tri-Ub)
# Experimental: as §2, §3, §4
# [4] = system: Ub-conjugates in HeLa cells; assay: Western blot of cellular Ub-conjugates; type: cell-based, human
# Experimental: as §1
# [5] = molecular target: T1, ^K48Ub4 (Homo sapiens, UniProt P0CG47); assay: SPR binding of cyclic peptides to K48-linked tetra-ubiquitin; details: SPR, target ^K48Ub4
# T1 construct: solid phase peptide synthesis of Ub monomers (modified as required); made in house
# Experimental: Surface Plasmon Resonance (SPR)
# The interactions between cyclic peptides: U2i, U2ii, U4i, U4ix and Ub1, ^K48Ub2 and ^K48Ub4, were determined using BIACORE T100 instrument (GE healthcare) equipped with a biotin CAPture kit Series S chip. The buffer in all experiments contained 50 mM HEPES, pH 7.3, 150 mM NaCl, 0.05% Tween20, 2 mM DTT with 0.2% DMSO. Biotinylated Ub1, ^K48Ub2 and ^K48Ub4 were loaded to approximately equal molar amounts on the SPR chip, and various concentrations of cyclic peptides were flowed over at […] for 120 sec, before initiation of dissociation by flowing buffer over at […] for further 700 sec. Traces were fit to the simplest, two-state model for binding. Association was fit to a single exponential assuming pseudo-first order conditions, whereas the dissociation trace was fit to single exponential plus a drift term. Finally, due to the poor quality of the traces for U4ix binding ^K48Ub2, the amplitude of the association kinetic trace at different concentrations of peptide was fit to estimate the lower bound for KD.
# Each peptide was flowed over Ub1, ^K48Ub2 and […] immobilized on SPR chips. There was no detectable binding to Ub1 for any of the peptides, as expected, as Ub1 binding was explicitly selected against during the RaPID protocol. […] However, Ub2i and Ub2ii also strongly bound ^K48Ub4, with a low apparent KD and an increased SPR response (FIG. 1E). This was consistent with a higher stoichiometry of binding to the tetramer, which could be explained by additional binding sites in ^K48Ub4. Indeed, the ^K48Ub2 structure can be superimposed twice on the ^K48Ub4 crystal structure (FIG. 10). […] However, similar to Ub2i and Ub2ii, Ub4i also bound ^K48Ub2. This was perhaps unsurprising, given the high sequence identity between Ub4i and Ub2i.
# [6] = system: HeLa cells; assay: Annexin V-FITC FACS apoptosis analysis; type: cell-based, human; details: 10 μM, 24 h and 48 h
# Experimental: Fluorescence-Activated Cell Sorting (FACS) Analysis
# Induction of apoptosis in Hela cells by treatment with cyclic peptides were determined after 24 and 48 hours incubation in a dose dependent manner, using annexin V-FITC apoptosis detection kit (BD Biosciences) according to the manufacturer s protocol. Two (2)×10^5 cells/well were seeded in 6-well plates and treated with an inhibitor for 24/48 hours in a dose dependent manner. The increase in fluorescence, which indicates the apoptosis level in the treated cells, were monitored using flow cytometry and compared to untreated cells containing DMSO as a negative control and MG132 as a positive control.
# Given that Ub4ix has a pronounced inhibitory effect on the UPS system, the inventors further wanted to examine whether it inhibit cell growth and induce apoptosis in cancer cells. […] The effects of the cyclic peptides on apoptosis were evaluated using FACS analysis.
# [7] = system: HeLa cells; type: cell-based, human; details: MTT
# Experimental: Cell Viability Assays and Kinetic Experiments In order to assess the effect of the cyclic peptides on Hela cells, toxicity was determined using the MTT assay. Equal amounts of cells (8,000 cells/well) were plated in 96-well plates in triplicate. After 24 hours, attached cells were exposed to increasing concentrations of the cyclic peptides for another 24 hours. […] Optical density was recorded at 590 nm with a reference measurement at 630 nm.
# [8] = system: 26S proteasome; assay: In vitro proteasome degradation assay of HA-α-globin-K48-linked tetra-Ub; type: biochemical; details: 5.3 μM peptide
# [9] = system: protein synthesis in HeLa cells; assay: Radioactive pulse assay of protein synthesis; type: cell-based, human; details: 35S-Met/Cys incorporation
# Experimental: HeLa cells were incubated with either DMSO, ribosomal inhibitor cycloheximide (CHX), or Ub4ix. After 4 hours, media were replaced with media containing radioactive Methionine and Cysteine, and cells where pulsed for 4 hours. Cells were thoroughly washed, proteins were extracted from the cells, and the radioactive readings of each sample were measured using a scintillation counter, indicating the extent of incorporation of radiolabeled Methionine and Cysteine into newly synthesized proteins.
# For the assay of inhibitions of protein synthesis, cells were incubated with DMSO, ribosomal inhibitor cycloheximide (CHX), or Ub4ix. After 4 hours, media were replaced with medium containing ^35S-methionine and cysteine (20 μCi) and cells where pulsed for 4 hours. Plates were extensively washed with ice-cold PBS and proteins were extracted from cells using trichloroacetic acid (TCA) precipitation. The radioactive readings were measured using a scintillation counter.
# [10] = system: cellular protein breakdown in HeLa cells; assay: Radioactive pulse and chase, degradation-inhibition assay; type: cell-based, human; details: 4 h chase, vs non-treated or DMSO
# Experimental: Radioactive Pulse and Chase
# For degradation-inhibition assays, cells were labeled with ^35S-methionine and cysteine (20 μCi) for 16 hours, followed by a chase in cold medium for 4 hours, in the presence of DMSO, proteasome inhibitor MG132, or Ub4ix. Media were then collected, and amino acids were extracted using TCA precipitation. Radioactive readings were measured using a scintillation counter.
# In order to directly measure the effect of Ub4ix on proteolysis, the inventors employed radiolabeling of cellular proteins, followed by a chase experiment in the presence of either Ub4ix or the proteasome inhibitor MG132. […] The inventors validated this inhibitory effect on protein breakdown with known proteasomal substrates, the proteins p53, and p27, bona fide substrates of the UPS.
compound,measurement,setting,value
CC[C@H](C)[C@@H]1NC(=O)[C@H](Cc2c[nH]c3ccccc23)NC(=O)[C@H](Cc2c[nH]c3ccccc23)NC(=O)[C@H](CC(=O)O)NC(=O)CNC(=O)[C@H](CO)NC(=O)[C@H](CC(=O)O)NC(=O)[C@H](CC(=O)O)NC(=O)[C@H](CC(C)C)NC(=O)[C@H](Cc2ccc(O)cc2)NC(=O)[C@H](CC(C)C)NC(=O)[C@@H](Cc2c[nH]c3ccccc23)NC(=O)CSC[C@@H](C(=O)NCC(N)=O)NC1=O [Ub4ix],p53 and p27 levels,[1],accumulated over time
same,inhibition of USP2,[2],minimal inhibition
same,inhibition of USP2,[3],strong inhibition
same,cellular level of Ub-conjugates,[4],elevation in Ub-conjugates
same,koff,[5],0.021 s⁻¹
same,kon,[5],3.52e+06 M⁻¹ s⁻¹
same,apoptosis,[6],clear increase in apoptosis
same,suppression of cell growth,[7],most effective
same,inhibition of proteasomal degradation of α-globin-K48-linked tetra-Ub,[8],clear inhibition
same,effect on protein synthesis,[9],does not interfere with protein synthesis
same,protein breakdown,[10],markedly reduced
